The results in this text go back to ChEMBL document CHEMBL1909046, “DrugMatrix in vitro pharmacology data”.

The first data set deals with T1, 5-hydroxytryptamine receptor 1A (Rattus norvegicus, UniProt P19327).
T1 sequence (P19327 whole entry): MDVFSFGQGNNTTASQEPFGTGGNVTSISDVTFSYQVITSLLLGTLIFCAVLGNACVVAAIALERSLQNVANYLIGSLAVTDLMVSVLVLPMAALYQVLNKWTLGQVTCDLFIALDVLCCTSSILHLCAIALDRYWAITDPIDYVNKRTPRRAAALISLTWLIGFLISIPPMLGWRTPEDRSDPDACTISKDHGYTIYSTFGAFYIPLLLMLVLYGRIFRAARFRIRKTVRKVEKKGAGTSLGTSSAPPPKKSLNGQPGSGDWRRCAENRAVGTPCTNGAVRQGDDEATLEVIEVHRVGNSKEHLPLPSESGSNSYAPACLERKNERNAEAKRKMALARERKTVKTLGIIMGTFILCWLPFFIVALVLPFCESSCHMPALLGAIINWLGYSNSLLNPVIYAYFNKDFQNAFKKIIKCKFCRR
The format is cell membranes, Membrane. The note with it: cho-k1.
Take `CC(C)[C@H]1CC[C@H](C(=O)N[C@H](Cc2ccccc2)C(=O)O)CC1` [NATEGLINIDE]: the IC50 result was “Not Active”.

For the compound `CCN[C@@H]1C[C@H](N)[C@@H](O[C@H]2OC(CN)=CC[C@H]2N)[C@H](O)[C@H]1O[C@H]1OC[C@](C)(O)[C@H](NC)[C@H]1O` [NETILMICIN], the IC50 entry is on record as “Not Active”.

In the case of `CCOC(=O)C1=C(C)NC(C)=C(C(=O)OC)C1c1cccc([N+](=O)[O-])c1` (stereo not drawn) [NITRENDIPINE], the IC50 entry was “Not Active”.

A further data set addresses cGMP-specific 3',5'-cyclic phosphodiesterase (Homo sapiens, UniProt O76074). Put plainly: DRUGMATRIX: Phosphodiesterase PDE5 enzyme inhibition (substrate: [3H]cGMP + cGMP). It is filed as tissue-based. Particulars: platelet; Not Active = under 50% inhibition at 10 µM.
With `CC(C)[C@H]1CC[C@H](C(=O)N[C@H](Cc2ccccc2)C(=O)O)CC1` [NATEGLINIDE], the IC50 result is on record as “Not Active”.

With `CCN[C@@H]1C[C@H](N)[C@@H](O[C@H]2OC(CN)=CC[C@H]2N)[C@H](O)[C@H]1O[C@H]1OC[C@](C)(O)[C@H](NC)[C@H]1O` [NETILMICIN], the IC50 result is “Not Active”.

Regarding `CCOC(=O)C1=C(C)NC(C)=C(C(=O)OC)C1c1cccc([N+](=O)[O-])c1` (stereo not drawn) [NITRENDIPINE], the IC50 entry is reported as “Not Active”.

In a further data set the target is D(1A) dopamine receptor (Homo sapiens, UniProt P21728). Put plainly: DRUGMATRIX: Dopamine D1 radioligand binding (ligand: [3H] SCH-23390). The format is cell membranes, Membrane. Particulars: cho; Not Active = under 50% inhibition at 10 µM.
D(1A) dopamine receptor, sequence (P21728 whole entry): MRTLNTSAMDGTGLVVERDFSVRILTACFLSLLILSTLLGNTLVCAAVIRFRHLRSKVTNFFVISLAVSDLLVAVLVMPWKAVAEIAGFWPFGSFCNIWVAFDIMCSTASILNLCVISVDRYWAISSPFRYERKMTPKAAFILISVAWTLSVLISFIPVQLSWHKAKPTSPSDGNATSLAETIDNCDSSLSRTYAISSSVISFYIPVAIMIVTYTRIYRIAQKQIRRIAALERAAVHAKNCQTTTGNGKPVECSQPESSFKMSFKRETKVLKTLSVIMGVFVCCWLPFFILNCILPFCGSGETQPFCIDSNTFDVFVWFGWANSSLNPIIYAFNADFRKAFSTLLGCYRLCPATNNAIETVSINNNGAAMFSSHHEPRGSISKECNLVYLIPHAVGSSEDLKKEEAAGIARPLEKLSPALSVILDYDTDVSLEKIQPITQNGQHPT
As to `CC(C)[C@H]1CC[C@H](C(=O)N[C@H](Cc2ccccc2)C(=O)O)CC1` [NATEGLINIDE], the IC50 entry is “Not Active”.

Regarding `CCN[C@@H]1C[C@H](N)[C@@H](O[C@H]2OC(CN)=CC[C@H]2N)[C@H](O)[C@H]1O[C@H]1OC[C@](C)(O)[C@H](NC)[C@H]1O` [NETILMICIN], the IC50 entry is on record as “Not Active”.

In the case of `CCOC(=O)C1=C(C)NC(C)=C(C(=O)OC)C1c1cccc([N+](=O)[O-])c1` (stereo not drawn) [NITRENDIPINE], the IC50 entry is listed as “Not Active”.

System in another data set: not listed separately
As to the kind of experiment: DRUGMATRIX: Sigma2 radioligand binding (ligand: [3H] Ifenprodil). The format is cell membranes, Rattus norvegicus, Wistar, Brain, Membrane. Particulars: Not Active = under 50% inhibition at 10 µM.
On to `CC(C)[C@H]1CC[C@H](C(=O)N[C@H](Cc2ccccc2)C(=O)O)CC1` [NATEGLINIDE], for which the IC50 result is “Not Active” and the Ki entry is given as “Not Active”.

Take `CCN[C@@H]1C[C@H](N)[C@@H](O[C@H]2OC(CN)=CC[C@H]2N)[C@H](O)[C@H]1O[C@H]1OC[C@](C)(O)[C@H](NC)[C@H]1O` [NETILMICIN]: the IC50 entry is “Not Active” and the Ki result is reported as “Not Active”.

Take `CCOC(=O)C1=C(C)NC(C)=C(C(=O)OC)C1c1cccc([N+](=O)[O-])c1` (stereo not drawn) [NITRENDIPINE]: the IC50 result is reported as “Not Active” and the Ki entry is recorded as “Not Active”.

Another data set addresses T2, Cytochrome P450 1A2 (Homo sapiens, UniProt P05177).
T2 sequence (P05177 whole entry): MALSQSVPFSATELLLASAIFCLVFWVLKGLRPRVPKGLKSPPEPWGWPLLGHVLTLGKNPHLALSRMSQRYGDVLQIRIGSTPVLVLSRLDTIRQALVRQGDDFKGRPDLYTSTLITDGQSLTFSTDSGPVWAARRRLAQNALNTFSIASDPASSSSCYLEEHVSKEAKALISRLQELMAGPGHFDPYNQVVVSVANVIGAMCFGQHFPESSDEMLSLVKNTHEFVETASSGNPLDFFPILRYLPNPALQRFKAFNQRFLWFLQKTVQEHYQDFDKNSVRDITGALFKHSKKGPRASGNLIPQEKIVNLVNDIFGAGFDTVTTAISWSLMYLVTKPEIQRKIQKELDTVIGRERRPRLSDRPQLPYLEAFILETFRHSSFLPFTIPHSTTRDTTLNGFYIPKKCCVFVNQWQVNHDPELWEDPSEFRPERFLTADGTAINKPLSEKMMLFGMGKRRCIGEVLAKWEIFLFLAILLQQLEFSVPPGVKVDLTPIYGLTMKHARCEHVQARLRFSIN
Particulars: bti-tn-5b1-4.
With `CC(C)[C@H]1CC[C@H](C(=O)N[C@H](Cc2ccccc2)C(=O)O)CC1` [NATEGLINIDE], the IC50 result is listed as “Not Active” and the Ki entry was “Not Active”.

As for `CCN[C@@H]1C[C@H](N)[C@@H](O[C@H]2OC(CN)=CC[C@H]2N)[C@H](O)[C@H]1O[C@H]1OC[C@](C)(O)[C@H](NC)[C@H]1O` [NETILMICIN], the IC50 result was “Not Active” and the Ki result is “Not Active”.

With `CCOC(=O)C1=C(C)NC(C)=C(C(=O)OC)C1c1cccc([N+](=O)[O-])c1` (stereo not drawn) [NITRENDIPINE], the IC50 entry is recorded as “Not Active” and the Ki entry is recorded as “Not Active”.

System in the next data set: not listed separately
As to the kind of experiment: DRUGMATRIX: Tumor Necrosis Factor (TNF), Non-Selective radioligand binding (ligand: [125I] TNF-alpha). It is filed as cell membranes, Membrane. The note with it: u-937; Not Active = under 50% inhibition at 10 µM.
As to `CC(C)[C@H]1CC[C@H](C(=O)N[C@H](Cc2ccccc2)C(=O)O)CC1` [NATEGLINIDE], the IC50 result is listed as “Not Active” and the Ki entry is listed as “Not Active”.

For `CCN[C@@H]1C[C@H](N)[C@@H](O[C@H]2OC(CN)=CC[C@H]2N)[C@H](O)[C@H]1O[C@H]1OC[C@](C)(O)[C@H](NC)[C@H]1O` [NETILMICIN], the IC50 result was “Not Active” and the Ki result is listed as “Not Active”.

Consider `CCOC(=O)C1=C(C)NC(C)=C(C(=O)OC)C1c1cccc([N+](=O)[O-])c1` (stereo not drawn) [NITRENDIPINE], for which the IC50 entry is given as “Not Active” and the Ki result is listed as “Not Active”.

For a further data set, the target named is Delta-type opioid receptor (Homo sapiens, UniProt P41143). The format is cell membranes, HEK293, Membrane. Particulars: hek293. Also: in other assays of this panel Not Active means under 50% inhibition at 10 µM.
Delta-type opioid receptor, sequence (P41143 whole entry): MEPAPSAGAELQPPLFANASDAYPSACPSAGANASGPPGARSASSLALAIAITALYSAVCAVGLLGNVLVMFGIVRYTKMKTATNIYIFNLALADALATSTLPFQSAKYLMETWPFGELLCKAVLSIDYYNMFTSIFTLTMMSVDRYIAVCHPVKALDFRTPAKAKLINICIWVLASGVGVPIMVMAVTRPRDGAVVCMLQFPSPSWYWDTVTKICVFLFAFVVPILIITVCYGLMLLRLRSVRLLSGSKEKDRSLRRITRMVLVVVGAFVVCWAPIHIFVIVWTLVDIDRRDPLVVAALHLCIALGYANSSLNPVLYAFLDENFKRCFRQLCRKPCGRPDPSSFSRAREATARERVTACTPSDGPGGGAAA
In the case of `CC(C)[C@H]1CC[C@H](C(=O)N[C@H](Cc2ccccc2)C(=O)O)CC1` [NATEGLINIDE], the IC50 entry is on record as “Not Active”.

Take `CCN[C@@H]1C[C@H](N)[C@@H](O[C@H]2OC(CN)=CC[C@H]2N)[C@H](O)[C@H]1O[C@H]1OC[C@](C)(O)[C@H](NC)[C@H]1O` [NETILMICIN]: the IC50 entry is on record as “Not Active”.

Regarding `CCOC(=O)C1=C(C)NC(C)=C(C(=O)OC)C1c1cccc([N+](=O)[O-])c1` (stereo not drawn) [NITRENDIPINE], the IC50 entry was “Not Active”.

The next data set has as its target T3, Alpha-1A adrenergic receptor (Rattus norvegicus, UniProt P43140).
T3 sequence (P43140 whole entry): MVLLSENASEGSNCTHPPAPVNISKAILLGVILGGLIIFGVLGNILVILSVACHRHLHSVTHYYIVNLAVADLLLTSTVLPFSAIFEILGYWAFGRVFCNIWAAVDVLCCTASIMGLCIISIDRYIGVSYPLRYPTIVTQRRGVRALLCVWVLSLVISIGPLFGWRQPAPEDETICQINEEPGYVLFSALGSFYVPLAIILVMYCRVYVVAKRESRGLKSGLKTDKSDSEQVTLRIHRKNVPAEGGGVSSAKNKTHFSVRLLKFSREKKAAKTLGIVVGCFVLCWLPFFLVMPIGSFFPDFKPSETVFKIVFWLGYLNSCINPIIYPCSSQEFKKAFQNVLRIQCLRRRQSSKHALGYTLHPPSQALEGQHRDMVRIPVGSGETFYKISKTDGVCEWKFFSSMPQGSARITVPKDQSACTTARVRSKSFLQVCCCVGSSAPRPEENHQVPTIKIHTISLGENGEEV
Put plainly: DRUGMATRIX: Alpha-1A adrenergic receptor radioligand binding (ligand: prazosin). The format is cell membranes, Wistar, Submaxillary gland, Membrane. The note with it: Not Active = under 50% inhibition at 10 µM.
Regarding `CC(C)[C@H]1CC[C@H](C(=O)N[C@H](Cc2ccccc2)C(=O)O)CC1` [NATEGLINIDE], the IC50 result was “Not Active”.

Take `CCN[C@@H]1C[C@H](N)[C@@H](O[C@H]2OC(CN)=CC[C@H]2N)[C@H](O)[C@H]1O[C@H]1OC[C@](C)(O)[C@H](NC)[C@H]1O` [NETILMICIN]: the IC50 result is recorded as “Not Active”.

In the case of `CCOC(=O)C1=C(C)NC(C)=C(C(=O)OC)C1c1cccc([N+](=O)[O-])c1` (stereo not drawn) [NITRENDIPINE], the IC50 entry is recorded as “Not Active”.
